Assay results as given in ChEMBL document CHEMBL4418495, “Entpd5 inhibitors” (2012).
The source made the active and inactive calls.

What was measured:
[1] = molecular target: T1, Nucleoside diphosphate phosphatase ENTPD5 (Homo sapiens) (UniProt O75356); assay: Inhibition of human recombinant ENTPD5 expressed in insect cells assessed as reduction in reduction in UDP hydrolysis by measuring inorganic phosphate release incubated for 1 hr by malachite green based assay
T1 sequence (whole entry): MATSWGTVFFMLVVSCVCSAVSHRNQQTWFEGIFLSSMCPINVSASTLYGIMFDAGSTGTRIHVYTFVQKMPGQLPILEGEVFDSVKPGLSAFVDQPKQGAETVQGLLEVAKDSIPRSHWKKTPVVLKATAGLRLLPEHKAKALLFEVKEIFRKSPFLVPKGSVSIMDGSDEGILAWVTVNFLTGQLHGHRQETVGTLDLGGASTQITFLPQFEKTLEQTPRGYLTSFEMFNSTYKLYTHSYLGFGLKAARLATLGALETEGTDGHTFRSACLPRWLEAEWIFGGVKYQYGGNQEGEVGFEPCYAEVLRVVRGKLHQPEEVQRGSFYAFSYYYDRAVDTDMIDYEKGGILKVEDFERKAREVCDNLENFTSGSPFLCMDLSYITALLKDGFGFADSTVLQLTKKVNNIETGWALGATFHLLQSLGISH

LNCaP [2] = assay: Antitumor activity against human LNCAP cells xenografted in mouse assessed as induction of tumor shrinkage at 1 to 100 mg/kg, ip dosed every other day and measured after 6 weeks by microscopy; assay type: functional, organism-based
LNCaP [3] = assay: Antitumor activity against human LNCAP cells xenografted in mouse assessed as reduction in cells left in matrigels at 1 to 100 mg/kg, ip dosed every other day and measured after 6 weeks by hematoxylin and eosin staining based microscopy; assay type: functional, organism-based
[4] = molecular target: T1, Nucleoside diphosphate phosphatase ENTPD5 (Homo sapiens); assay: Inhibition of human recombinant ENTPD5 expressed in insect cells assessed as reduction in UDP hydrolysis at 1 uM incubated for 1 hr in presence of UMP, GTP and ATP by Escherichia coli UMP kinase pyrH catalyzed UMP phosphorylation coupled luciferase assay
[5] = molecular target: T2, Ectonucleoside triphosphate diphosphohydrolase 5 (Mus musculus) (UniProt Q9WUZ9); assay: Inhibition of ENTPD5 in PTEN knockout mouse MEF cells assessed as induction of ER stress by measuring increase in GRP78/BiP expression at 30 uM incubated for 24 hrs by Western blotting analysis; assay type: cell-based
T2 sequence (whole entry): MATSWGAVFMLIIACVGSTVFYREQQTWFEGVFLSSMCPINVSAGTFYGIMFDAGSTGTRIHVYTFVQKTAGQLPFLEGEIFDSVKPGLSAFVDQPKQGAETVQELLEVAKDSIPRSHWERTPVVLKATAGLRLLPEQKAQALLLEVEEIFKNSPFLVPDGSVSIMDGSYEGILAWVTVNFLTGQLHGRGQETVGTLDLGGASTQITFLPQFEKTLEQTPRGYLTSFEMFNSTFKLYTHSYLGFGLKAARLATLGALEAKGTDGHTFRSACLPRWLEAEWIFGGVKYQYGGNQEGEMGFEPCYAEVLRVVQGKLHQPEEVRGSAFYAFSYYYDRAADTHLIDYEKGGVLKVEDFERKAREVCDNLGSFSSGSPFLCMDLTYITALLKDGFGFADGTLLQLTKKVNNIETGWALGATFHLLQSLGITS

[6] = molecular target: T2, Ectonucleoside triphosphate diphosphohydrolase 5 (Mus musculus); assay: Inhibition of ENTPD5 in PTEN knockout mouse MEF cells assessed as induction of ER stress by measuring increase in EGF receptor degradation incubated for 24 hrs by Western blotting analysis; assay type: cell-based
[7] = molecular target: T3, Uridylate kinase (Escherichia coli (strain K12)) (UniProt P0A7E9); assay: Inhibition of recombinant Escherichia coli UMP kinase pyrH catalyzed UMP phosphorylation in presence of GTP and ATP incubated for 1 hr by luminescence based assay
T3 sequence (whole entry): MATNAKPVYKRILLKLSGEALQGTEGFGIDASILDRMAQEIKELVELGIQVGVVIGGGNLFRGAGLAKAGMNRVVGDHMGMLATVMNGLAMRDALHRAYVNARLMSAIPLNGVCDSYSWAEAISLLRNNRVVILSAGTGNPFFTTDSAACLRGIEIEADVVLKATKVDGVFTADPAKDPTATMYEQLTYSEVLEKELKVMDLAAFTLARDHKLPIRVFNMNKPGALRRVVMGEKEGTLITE

[8] = molecular target: T2, Ectonucleoside triphosphate diphosphohydrolase 5 (Mus musculus); assay: Inhibition of ENTPD5 in PTEN knockout mouse MEF cells assessed as induction of ER stress by measuring increase in GRP78/BiP expression incubated for 24 hrs by Western blotting analysis; assay type: cell-based
[9] = molecular target: T1, Nucleoside diphosphate phosphatase ENTPD5 (Homo sapiens); assay: Inhibition of human recombinant ENTPD5 expressed in insect cells assessed as reduction in UDP hydrolysis up to 10 uM incubated for 1 hr in presence of UMP, GTP and ATP by Escherichia coli UMP kinase pyrH catalyzed UMP phosphorylation coupled luciferase assay
[10] = molecular target: T4, Nucleoside diphosphate phosphatase ENTPD5 (Homo sapiens, UniProt O75356); assay: Inhibition of human recombinant ENTPD5 expressed in insect cells assessed as reduction in UDP hydrolysis incubated for 1 hr in presence of UMP, GTP and ATP by Escherichia coli UMP kinase pyrH catalyzed UMP phosphorylation coupled luciferase assay
T4 sequence (O75356 whole entry): T1 sequence (whole entry)

MEF = assay: Toxicity in PTEN knockout mouse MEF cells assessed as reduction in cell viability at 30 uM incubated for 24 hrs; assay type: cell-based

COc1ccc(-n2cccc2/C=C2\C(=O)NC(=S)N(c3cccc(Br)c3)C2=O)cc1
inactive: inhibition [7]
active: inhibition [1] | Activity (LNCaP [2]) | Activity (LNCaP [3]) | inhibition [4] | inhibition [5] | inhibition [6] Dose-dependent effect | inhibition [8] Dose-dependent effect | inhibition [9] Dose-dependent effect

O=C1/C(=C/c2ccc(O)cc2O)CCC/C1=C\c1ccc(O)cc1O
inactive: inhibition [7]
active: inhibition [1] | Activity (LNCaP [2]) | Activity (LNCaP [3]) | inhibition [4] | inhibition [5] | inhibition [9] Dose-dependent effect

Cc1cc(/C=C2\C(=O)NC(=S)N(c3ccc(Cl)cc3)C2=O)c(C)n1-c1ccc([N+](=O)[O-])cc1
inactive: inhibition [7]
active: inhibition [1] | Activity (LNCaP [2]) | Activity (LNCaP [3]) | inhibition [4] | inhibition [5] | inhibition [9] Dose-dependent effect

COc1ccccc1/C=N\NC(=O)c1cc2c(C)nn(-c3ccccc3)c2s1
inactive: inhibition [7]
active: inhibition [1] | Activity (LNCaP [2]) | Activity (LNCaP [3]) | inhibition [4] | inhibition [5] | inhibition [9] Dose-dependent effect

Cc1ccc(-c2ccc(C=C3C(=O)NC(=S)NC3=O)o2)c(Br)c1
active: inhibition [1] | Activity (LNCaP [2]) | Activity (LNCaP [3]) | inhibition [4] | inhibition [5] | inhibition [9] Dose-dependent effect
inactive: inhibition [7]

N#CC1=C(c2ccco2)CC(c2ccccc2)NC1=S (stereo unspecified)
inactive: inhibition [7]
active: inhibition [1] | Activity (LNCaP [2]) | Activity (LNCaP [3]) | inhibition [4] | inhibition [5] | inhibition [9] Dose-dependent effect

C[C@H]1CC[C@@H]2C(CCCC2(C)C)[C@]1(C)c1cc(O)ccc1O (stereo partly specified)
30 µM: IC50 [10]

S=C(Nc1ccc2nc(-c3ccco3)c(-c3ccco3)nc2c1)N1CCCC1
inactive: inhibition [7]
active: inhibition [1] | Activity (LNCaP [2]) | Activity (LNCaP [3]) | inhibition [4] | inhibition [5] | inhibition [9] Dose-dependent effect

O=C1NC(=O)N(c2ccc(F)cc2)C(=O)/C1=C/c1ccc(Sc2ccc(Cl)cc2)o1
active: inhibition [1] | Activity (LNCaP [2]) | Activity (LNCaP [3]) | inhibition [4] | inhibition [5] | inhibition [9] Dose-dependent effect
inactive: inhibition [7]

CCOC(=O)c1ccc(-c2ccc(/C=C3/C(=O)NC(=O)N(Cc4ccco4)C3=O)o2)cc1
inactive: inhibition [7]
active: inhibition [1] | Activity (LNCaP [2]) | Activity (LNCaP [3]) | inhibition [4] | inhibition [5] | inhibition [9] Dose-dependent effect

COc1ccc(/C=C2\SC(=S)N(c3ccc([N+](=O)[O-])cc3)C2=O)cc1O
active: inhibition [1] | Activity (LNCaP [2]) | Activity (LNCaP [3]) | inhibition [4] | inhibition [5] | inhibition [9] Dose-dependent effect
inactive: inhibition [7]

CC1(C)CCC[C@]2(C)[C@H]3Cc4cc(O)ccc4O[C@]3(C)CC[C@@H]12
10 µM: IC50 [10]

O=C1/C(=C/c2ccco2)C(=O)N(c2ccc(Br)cc2)C(=S)N1c1ccccc1
inactive: inhibition [7]
active: inhibition [1] | Activity (LNCaP [2]) | Activity (LNCaP [3]) | inhibition [4] | inhibition [5] | inhibition [9] Dose-dependent effect

N=C1S/C(=C\c2ccc(N3CCOCC3)cc2)C(=O)N1c1ccc(Br)cc1
active: inhibition [1] | Activity (LNCaP [2]) | Activity (LNCaP [3]) | inhibition [4] | inhibition [5] | inhibition [9] Dose-dependent effect
inactive: inhibition [7]

Cc1cc(I)cc2c1NC(c1ccc([N+](=O)[O-])cc1)C1CC=CC21 (stereo unspecified)
active: inhibition [1] | Activity (LNCaP [2]) | Activity (LNCaP [3]) | inhibition [4] | inhibition [5] | inhibition [9] Dose-dependent effect
inactive: inhibition [7]

O=C(Nc1ccccc1)NC(N1CCOCC1)C(Cl)(Cl)Cl (stereo unspecified)
active: inhibition [1] | Activity (LNCaP [2]) | Activity (LNCaP [3]) | inhibition [4] | inhibition [5] | inhibition [9] Dose-dependent effect
inactive: inhibition [7]

CCOc1ccc(N2C(=O)/C(=C/c3cccn3-c3ccc(Br)cc3)C(=O)NC2=S)c(F)c1
inactive: inhibition [7]
active: inhibition [1] | Activity (LNCaP [2]) | Activity (LNCaP [3]) | inhibition [4] | inhibition [5] | inhibition [6] Dose-dependent effect | inhibition [8] Dose-dependent effect | inhibition [9] Dose-dependent effect

C[C@H]1CC[C@]2(C)C(CCCC2(C)C)[C@]1(C)c1cc(O)ccc1O (stereo partly specified)
30 µM: IC50 [10]

O=C1/C(=C/c2ccc(O)c([N+](=O)[O-])c2)SC(=S)N1c1cccc(C(F)(F)F)c1
inactive: inhibition [7]
active: inhibition [1] | Activity (LNCaP [2]) | Activity (LNCaP [3]) | inhibition [4] | inhibition [5] | inhibition [9] Dose-dependent effect

C[C@H]1CC[C@H]2C(C)(C)CCC[C@]23Oc2ccc(O)cc2C[C@]13C [AUREOL]
15 to 20 µM: IC50 [10]
Toxic: Activity (MEF)
